{
  "source": "patent US20210228825A1",
  "about": "“METHODS FOR DIAGNOSING BRUGADA SYNDROME USING AN AEROSOL” (InCarda Therapeutics, Inc., priority 2018, published 2021)",
  "assay": "Pharmacokinetics analysis in human clinical trial FLE-001, inhalation versus intravenous flecainide, venous plasma",
  "assay_type": "in vivo",
  "conditions": "healthy adult volunteers, read-out: Peak plasma concentration of flecainide (Cmax)",
  "experimental": "This example describes pharmacokinetics (PK) analysis performed during a human clinical trial (FLE-001) in which inhalation administration of flecainide was tested for safety and compared against intravenous administration of flecainide.\nThis was an open label non-randomized crossover in a cohort of 6 evaluable healthy adult volunteers. This part of the study consisted of two periods with each subject receiving a total of 2 doses of flecainide, one dose in each period. In Period 1, 3 subjects received flecainide acetate solution by inhalation at the dose level of 30 mg estimated lung total dose (eTLD). and 3 subjects received a single dose of 2 mg/kg (or 150 mg, whichever is less) via a 10 min intravenous (IV) infusion of flecainide (Tambocor™ Injection; approved and used in clinical practice in Australia). In Period 2, the subjects who received flecainide inhalation solution in Period 1 now received a single dose of IV flecainide (2 mg/kg or 150 mg, whichever is less, via a 10 min infusion), while the subjects who received IV flecainide in Period 1 now received flecainide inhalation solution (30 mg eTLD). […] The interpretation is that there was no carry over effect of treatment or other changes in the subjects' vital signs and ECG intervals between the two periods. […]",
  "note": "Where two headings read alike, the source gives them in different places.",
  "data": [
    {"smiles": "O=C(NCC1CCCCN1)c1cc(OCC(F)(F)F)ccc1OCC(F)(F)F", "note": "(centres unmarked) [flecainide]", "values": [
      {"measurement": "Cmax", "setting": "intravenous 2 mg/kg (or 150 mg, whichever is less), 10 min infusion, mean±SD", "result": "749 ± 308", "unit": "ng/mL"},
      {"measurement": "Cmax", "setting": "inhaled, inhalation of flecainide acetate solution, 30 mg eTLD", "result": 120, "unit": "ng/mL"}
    ]}
  ]
}
